# Laboratory results reported in US12201620B2, “Compositions and methods for treating chemotherapy resistant cancer” (The Brigham And Women's Hospital, Inc., priority 2016, dated 2025).
# Entries after “also recorded” stand apart in the source; their conditions may differ. Residues, ends and D or L forms follow the SMILES beside them. *: point of attachment. Cbz = O=C(OCc1ccccc1)*
# What was measured:
# [1] = test system: Molm13 PPM1D-mutant and control single cell clones; experiment: 72-hour cell viability analysis; format: cell-based, human; conditions: for viability of PPM1D-mutant cells versus control cells in the presence of chemotherapeutic agent: 72 hours, increasing concentrations
# Protocol: FIG. 2B provides immunoblots of whole cell lysates from Molm13 control cells (control), PPM1D-mutant pooled clones and PPM1D frame-shift (fs) mutant single cell clones probed with anti-PPM1D and anti-Actin. […] FIG. 2D is a plot depicting viability assays in Molm13 PPM1D-mutant or control single cells clones that were treated with increasing concentrations of cyclophosphamide for 72 hours. FIG. 2E is a plot depicting viability assays in Molm13 PPM1D-mutant or control single cells clones that were treated with increasing concentrations of cisplatin for 72 hours. […] FIG. 2G is a plot depicting flow cytometric readout of competition experiment with 5% pooled Molm13 PPM1D-mutant cells and 95% pooled Molm13 control cells exposed to 350 nM Cyclophosphamide or vehicle for 24 days. FIG. 2H is a plot depicting flow cytometric readout of competition experiment with 5% pooled Molm13 PPM1D-mutant cells and 95% pooled Molm13 control cells exposed to 1 μM Cisplatin or vehicle for 24 days. […] PPM1D and control sgRNAs were identified through their fluorophores.
# The line represents the locally weighted scatterplot smoothing (LOESS) of 0.1. […] FIG. 8B is a vector map of the degradation reporter vector, with different PPM1D cDNA constructs inserted. FIG. 8C is a graph showing EGFP/mCherry ratio for Molm13 cells with overexpression of wild type PPM1D, truncated PPM1D or the C-terminal end of PPM1D. FIG. 8D is a graph showing EGFP/mCherry ratio for Molm13 p53^−/− cells with overexpression of wild type PPM1D, truncated PPM1D or the C-terminal end of PPM1D. FIG. 8E is a graph showing EGFP/mCherry ratio in Molm13 cells before and after exposure to MG132 (10 μM, 6 hours), normalized to pre-treatment values. FIG. 8F is a plot showing cell viability analysis in Molm13 control cells (control), Molm13 PPM1D truncating mutant cells (PPM1D mutant) and Molm13 cells with overexpression of wild-type PPM1D (WT overexpression). […] For all experiments the following apply: *=p<0.05, **=p<0.01, ***=p<0.001,****=p<0.0001
# (§1) 72 hour cell viability analysis in Molm13 PPM1D-mutant and control single cell clones after exposure to increasing doses of GSK2830371. FIG. 10F is a graph showing percent Annexin V positive cells in cells treated with PPM1D inhibitor or vehicle. Annexin V staining and flow cytometric analysis of Molm13 PPM1D-mutant and control single cell clones exposed to 3 μM of GSK2830371. *=p<0.05, **=p<0.01, ***=p<0.001
# To study the role of PPM1D mutations in chemotherapy resistance, mutations in PPM1D were induced using the CRISPR-Cas9 system. […] Using sequence verified PPM1D mutant (fs) and empty vector control Molm13 cells, the effects of mutant and wild type PPM1D in the response to DNA damaging chemotherapy were analyzed. […] (FIG. 1C).
# (§2) To study the sensitivity of PPM1D truncating mutations to chemotherapy exposure, frame-shift mutations were introduced in the PPM1D gene in Molm13 AML cells, which are TP53 wild-type, using CRISPR-Cas9.
# [2] = test system: Molm13 PPM1D-mutant pooled cells and control pooled cells; experiment: In vitro competition experiment, PPM1D-mutant cells mixed with control cells; format: cell-based, human; conditions: PPM1D mutant cells mixed with control cells
# Protocol: FIG. 2B provides immunoblots of whole cell lysates from Molm13 control cells (control), PPM1D-mutant pooled clones and PPM1D frame-shift (fs) mutant single cell clones probed with anti-PPM1D and anti-Actin. […] FIG. 2D is a plot depicting viability assays in Molm13 PPM1D-mutant or control single cells clones that were treated with increasing concentrations of cyclophosphamide for 72 hours. FIG. 2E is a plot depicting viability assays in Molm13 PPM1D-mutant or control single cells clones that were treated with increasing concentrations of cisplatin for 72 hours. […] FIG. […] FIG. […] PPM1D and control sgRNAs were identified through their fluorophores.
# as §1, §2
# [3] = test system: Molm13 PPM1D-mutant and control single cell clones; experiment: Annexin V staining and flow cytometric analysis; format: cell-based, human; conditions: 400 nM cytarabine, 24 hours
# Description: FIG. 9E is a chart depicting the consensus sequence of PPM1D based on substrate analysis of 43 substrate candidates of PPM1D. FIG. 9F depicts 43 potential PPM1D substrate sites on pSer/Thr residues on 25 proteins. […] Only localized sites were considered. Figure discloses SEQ ID NOS 4-20 and 20-31, respectively, in order of appearance. FIG. 9G depicts a schema illustrating the components of the DNA-damage response pathway that are targeted by PPM1D in leukemia cells, based on the results from the phosphoproteomics analysis. Phospho-targets of PPM1D identified by mass spectrometry (FDR<0.1) are shown in bold. Predicted PPM1D target sites that were based on the identified consensus sequence with a glutamine at +1 and >2 acidic residues (p=3.595e-13, Fisher's exact test) are shown in italics.
# as §1
# [4] = test system: Molm13 PPM1D-mutant and control single cell clones; experiment: BrdU staining and flow cytometric analysis (cell cycle); format: cell-based, human; conditions: 100 nM cytarabine, 24 hours
# PPM1D-mutant cells = experiment: In vivo competition experiment in bone marrow chimeras treated with cytarabine; conditions: mice
# Description: FIG. 5 provides an experimental schema of an in vivo competition experiment. Bone marrow chimaeras were generated by transplanting Mx-Cre Cas9 cKit^+Cas9 cells transduced with a BFP-tagged sgRNA targeting exon 6 of PPM1D or a tRFP-tagged control sgRNA into lethally-irradiated syngeneic recipients in a 1:5 ratio.
# PPM1D and control sgRNAs were identified through their fluorophores. […] […] PPM1D and control sgRNAs were identified through their fluorophores.
# Whether PPM1D mutations confer resistance to chemotherapy in vivo was examined. In another experiment, bone marrow chimeras were generated using Mx-Cre Cas9 c-Kit^+ cells that were transduced with a BFP-tagged sgRNA targeting exon 6 of PPM1D or a tRFP-tagged control sgRNA and transplanted into lethally-irradiated syngeneic recipients in a 1:5 ratio (FIG. 5). Mice were treated with cytarabine or vehicle after hematopoietic reconstitution.
# PPM1D = PPM1D degradation reporter (EGFP/mCherry ratio); format: cell-based, human; conditions: Molm13 cells, MG132 10 μM, 6 hours
# Description: The line represents the locally weighted scatterplot smoothing (LOESS) of 0.1. Overlaid are frame-shift and non-sense mutations (black bars) identified in the blood cells of 29,562 persons as described in FIG. 2A. FIG. 8B is a vector map of the degradation reporter vector, with different PPM1D cDNA constructs inserted. FIG. 8C is a graph showing EGFP/mCherry ratio for Molm13 cells with overexpression of wild type PPM1D, truncated PPM1D or the C-terminal end of PPM1D. FIG. 8D is a graph showing EGFP/mCherry ratio for Molm13 p53^−/− cells with overexpression of wild type PPM1D, truncated PPM1D or the C-terminal end of PPM1D. FIG. 8E is a graph showing EGFP/mCherry ratio in Molm13 cells before and after exposure to MG132 (10 μM, 6 hours), normalized to pre-treatment values. […]
# A reporter vector was generated in which wild-type PPM1D cDNA (wt), PPM1D truncation mutants, or the last 80 amino-acids (C-terminal region) were cloned in frame with GFP, so the level of expression of the PPM1D sequences could be monitored by GFP expression (FIG. 8B, Table 1).
# The fluorescence level of mCherry, which is expressed following an IRES sequence, provided an internal control for vector expression in each cell. […]
compound,measurement,setting,value
O=C1/C(=C/c2cccs2)CC/C1=C\c1cccs1 [CCT007093],"sensitivity of PPM1D-mutant cells versus control cells to single agent PPM1D inhibitor, cell viability","[1]; 72 hour, increasing doses",increased sensitivity to treatment with the PPM1D inhibitor CCT007093 in comparison to wild-type (wt) control cells; also recorded: increased sensitivity to PPM1D inhibition with either compound in comparison to wild type control cells
N.N.[Cl][Pt][Cl] [Cisplatin],viability of PPM1D-mutant cells versus control cells in the presence of chemotherapeutic agent,[1],increased viability at 72 hours
O=P1(N(CCCl)CCCl)NCCCO1 (stereo not drawn) [Cyclophosphamide],viability of PPM1D-mutant cells versus control cells in the presence of chemotherapeutic agent,[1],increased viability at 72 hours
same,competitive advantage of PPM1D-mutant cells under chemotherapy,[2],PPM1D mutant cells had a competitive advantage
Nc1ccn([C@@H]2O[C@H](CO)[C@@H](O)[C@@H]2O)c(=O)n1 [Cytarabine],viability of PPM1D-mutant cells versus control cells in the presence of chemotherapeutic agent,[1],increased resistance to Cytarabine in PPM1D mutant cells compared to empty vector controls; also recorded: resistance to treatment with Cytarabine
same,viability of PPM1D-mutant cells versus control cells in the presence of chemotherapeutic agent,[1]; listed as cytarabine,increased viability at 72 hours
same,competitive advantage of PPM1D-mutant cells under chemotherapy,[2],PPM1D mutant cells had a competitive advantage
same,"apoptosis of PPM1D-mutant versus control cells after chemotherapy, Annexin V staining",[3],decreased apoptosis
same,progression to G2/M phase of PPM1D-mutant versus control cells after chemotherapy,[4],increased progression to G2/M phase
same,PPM1D-mutant cells in the peripheral blood after cytarabine treatment,"PPM1D-mutant cells; 1:5 chimeras, several rounds of cytarabine","significant, selective increase of PPM1D-mutant cells in the peripheral blood"
same,PPM1D-mutant hematopoietic stem and progenitor cells in the bone marrow,"PPM1D-mutant cells; 12 weeks, 3 rounds of cytarabine",also increased
CC(C)C[C@@H](C=O)NC(=O)[C@H](CC(C)C)NC(=O)[C@H](CC(C)C)NC(=O)OCc1ccccc1 [MG132] (Cbz-Leu-Leu-Leu-aldehyde),degradation of PPM1D constructs (EGFP/mCherry ratio),PPM1D,"decreased degradation of wild-type and C-terminal PPM1D, but not of the truncating mutants"
